Reference: PubChem BioAssay (NCI)
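Exposure lasted 48 hours, with cells grown in 96-well plates and compounds tested at five concentrations. GI50 marks 50% less growth. TGI marks complete inhibition of growth.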

tested on: CCRF-CEM leukemia; assay: DTP human tumour cell line panel, 48 h

SMILES	GI50 [µM]	TGI [µM]
CC(C)n1nc(-c2cc3cc(O)ccc3[nH]2)c2c(N)ncnc21	0.345	4.28
CCCCC(O)(c1ccc(Cl)cc1)C(CN1CCOCC1)c1ccc(Cl)cc1 (stereo unspecified)	14.3	36.2
NCC1Nc2ccccc2[C@@H](O)C1O (stereo partly specified)		> 100
Cc1cccc(N2CCN(C(=S)c3ccc4c(c3)OCO4)CC2)c1	6.91	> 100
O=C(N/N=C/c1ccc(Cl)cc1)c1ccc(C(F)(F)F)nc1Nc1cccc(C(F)(F)F)c1	0.344	3.62
COc1cc2ncnc(Nc3ccc(C)c(O)c3)c2cc1OC	> 25	> 25
COC(=O)C1=CNC=C(C(=O)OC)C1C1=CC(=O)C(C)=CC1=O	4.3	
Cc1cc(S(=O)(=O)Nc2nnc(-c3ccccc3)c(-c3ccccc3)n2)c(SCC(N)=O)cc1Cl	29.3	77.4
COc1ccc(/C=C/c2ccnc3ccccc23)c(OC)c1		> 10
Cc1ccc(C(=O)CN(/C=C/C(=O)C(F)(F)F)c2ccc(S(N)(=O)=O)cc2)cc1	30.3	> 100
NS(=O)(=O)c1ccc(NC2(C(=O)O)CCCC2)cc1		> 100
O=C(O)C1OC(n2cc(F)c(=O)[nH]c2=O)CC1O (stereo unspecified)		> 100
N=C1C(c2nc3ccccc3s2)=C(O)CN1c1cc(C(F)(F)F)ccc1Cl	21.3	> 100
CC(=O)CSCc1ccccn1		90.7
COc1ccccc1CNCCCN1C(=O)c2ccc3c4c(ccc(c24)C1=O)C(=O)N(CCCOCCCCOCCCN)C3=O	0.559	3.54
CCOC(=O)[C@@H](N)CCC(=O)N[C@@H](CSCc1ccccc1)C(=O)N[C@@H](C(=O)OCC)c1ccccc1	21.8	> 67.7
COc1ccc(Nc2c3ccccc3nc3occc23)cc1	1.27	> 24.7
CC(=O)/C(C)=N/NC(=O)c1ccccc1O		> 100
COc1cc(/C=C/c2cc(/C=C/c3ccc(O)c(OC)c3)n(C(=O)Nc3ccc(F)c(Cl)c3)n2)ccc1O	0.131	> 100
CCCCCCCC/C=C/CCCCCCCC(=O)OC[C@H]1O[C@@H](n2ccc(N)nc2=O)C(F)(F)[C@@H]1O	< 0.0158	2.09
NS(=O)(=O)c1ccc(N=Nc2c(O)[nH]c3ccc(-c4cnco4)cc23)cc1	14.4	> 25
Clc1ccc(C2=Nn3c(COc4ccccc4Cl)nnc3SC2)c(Cl)c1	30.6	> 100
COc1cc2c3c(n(CCCNC(=O)OCC4c5ccccc5-c5ccccc54)c(=O)c2cc1OC)-c1cc2c(cc1/C3=C\CCNC(=O)OCC1c3ccccc3-c3ccccc31)OCO2	1.42	> 50
N#C/C(=C1C=C(Br)/C(=N\O)C=C\1Cl)c1cccc2ccccc12		13.9
COC(=O)[C@@H](C)CNS(=O)(=O)N(c1cc(C(F)(F)F)cc(C(F)(F)F)c1)C1CCN(Cc2ccc(F)cc2)CC1	12.8	30.7
C=C1C(=O)O[C@@H]2/C=C(\C)CC/C=C(/COC(C)=O)C[C@@H](OC(C)=O)[C@@H]12		14.3
COC(=O)[C@H](C)NC(=O)NC(=O)NC(=O)CI	2.03	4.44

tested on: IGROV1 ovarian; assay: DTP human tumour cell line panel, 48 h

SMILES	GI50 [µM]	TGI [µM]
CC(C)n1nc(-c2cc3cc(O)ccc3[nH]2)c2c(N)ncnc21	0.0945	0.774
CCCCC(O)(c1ccc(Cl)cc1)C(CN1CCOCC1)c1ccc(Cl)cc1 (stereo unspecified)	8.68	33
NCC1Nc2ccccc2[C@@H](O)C1O (stereo partly specified)		> 100
Cc1cccc(N2CCN(C(=S)c3ccc4c(c3)OCO4)CC2)c1	1.21	> 100
O=C(N/N=C/c1ccc(Cl)cc1)c1ccc(C(F)(F)F)nc1Nc1cccc(C(F)(F)F)c1	2.4	10.5
COc1cc2ncnc(Nc3ccc(C)c(O)c3)c2cc1OC	1.98	> 12
COC(=O)C1=CNC=C(C(=O)OC)C1C1=CC(=O)C(C)=CC1=O	14.3	27.5
Cc1cc(S(=O)(=O)Nc2nnc(-c3ccccc3)c(-c3ccccc3)n2)c(SCC(N)=O)cc1Cl	> 100	> 100
COc1ccc(/C=C/c2ccnc3ccccc23)c(OC)c1		> 10
Cc1ccc(C(=O)CN(/C=C/C(=O)C(F)(F)F)c2ccc(S(N)(=O)=O)cc2)cc1	> 100	> 100
NS(=O)(=O)c1ccc(NC2(C(=O)O)CCCC2)cc1		> 100
O=C(O)C1OC(n2cc(F)c(=O)[nH]c2=O)CC1O (stereo unspecified)		> 100
N=C1C(c2nc3ccccc3s2)=C(O)CN1c1cc(C(F)(F)F)ccc1Cl	9.64	> 100
CC(=O)CSCc1ccccn1		> 100
COc1ccccc1CNCCCN1C(=O)c2ccc3c4c(ccc(c24)C1=O)C(=O)N(CCCOCCCCOCCCN)C3=O	1.25	3.67
CCOC(=O)[C@@H](N)CCC(=O)N[C@@H](CSCc1ccccc1)C(=O)N[C@@H](C(=O)OCC)c1ccccc1	19.3	36.4
COc1ccc(Nc2c3ccccc3nc3occc23)cc1	7.66	> 100
CC(=O)/C(C)=N/NC(=O)c1ccccc1O	> 10	> 100
COc1cc(/C=C/c2cc(/C=C/c3ccc(O)c(OC)c3)n(C(=O)Nc3ccc(F)c(Cl)c3)n2)ccc1O	0.47	3.59
CCCCCCCC/C=C/CCCCCCCC(=O)OC[C@H]1O[C@@H](n2ccc(N)nc2=O)C(F)(F)[C@@H]1O	19	> 100
NS(=O)(=O)c1ccc(N=Nc2c(O)[nH]c3ccc(-c4cnco4)cc23)cc1	> 25	> 25
Clc1ccc(C2=Nn3c(COc4ccccc4Cl)nnc3SC2)c(Cl)c1	33.6	> 100
COc1cc2c3c(n(CCCNC(=O)OCC4c5ccccc5-c5ccccc54)c(=O)c2cc1OC)-c1cc2c(cc1/C3=C\CCNC(=O)OCC1c3ccccc3-c3ccccc31)OCO2	0.915	4.93
N#C/C(=C1C=C(Br)/C(=N\O)C=C\1Cl)c1cccc2ccccc12		> 100
COC(=O)[C@@H](C)CNS(=O)(=O)N(c1cc(C(F)(F)F)cc(C(F)(F)F)c1)C1CCN(Cc2ccc(F)cc2)CC1	18.8	44.9
C=C1C(=O)O[C@@H]2/C=C(\C)CC/C=C(/COC(C)=O)C[C@@H](OC(C)=O)[C@@H]12		28.1
COC(=O)[C@H](C)NC(=O)NC(=O)NC(=O)CI	17.1	35.4

tested on: LOX IMVI melanoma; assay: DTP human tumour cell line panel, 48 h

SMILES	GI50 [µM]	TGI [µM]
CC(C)n1nc(-c2cc3cc(O)ccc3[nH]2)c2c(N)ncnc21	0.309	
CCCCC(O)(c1ccc(Cl)cc1)C(CN1CCOCC1)c1ccc(Cl)cc1 (stereo unspecified)	14.4	28.3
NCC1Nc2ccccc2[C@@H](O)C1O (stereo partly specified)		> 100
Cc1cccc(N2CCN(C(=S)c3ccc4c(c3)OCO4)CC2)c1	1.88	> 100
O=C(N/N=C/c1ccc(Cl)cc1)c1ccc(C(F)(F)F)nc1Nc1cccc(C(F)(F)F)c1	1.3	8
COc1cc2ncnc(Nc3ccc(C)c(O)c3)c2cc1OC	10.3	> 25
COC(=O)C1=CNC=C(C(=O)OC)C1C1=CC(=O)C(C)=CC1=O	14	28.6
Cc1cc(S(=O)(=O)Nc2nnc(-c3ccccc3)c(-c3ccccc3)n2)c(SCC(N)=O)cc1Cl	34.6	85.1
COc1ccc(/C=C/c2ccnc3ccccc23)c(OC)c1		> 10
Cc1ccc(C(=O)CN(/C=C/C(=O)C(F)(F)F)c2ccc(S(N)(=O)=O)cc2)cc1	76	> 100
NS(=O)(=O)c1ccc(NC2(C(=O)O)CCCC2)cc1		> 100
O=C(O)C1OC(n2cc(F)c(=O)[nH]c2=O)CC1O (stereo unspecified)		> 100
N=C1C(c2nc3ccccc3s2)=C(O)CN1c1cc(C(F)(F)F)ccc1Cl	22.7	> 100
CC(=O)CSCc1ccccn1		> 100
COc1ccccc1CNCCCN1C(=O)c2ccc3c4c(ccc(c24)C1=O)C(=O)N(CCCOCCCCOCCCN)C3=O	1.26	3.01
